Results reported in PubChem BioAssay AID1963850 (Molecular Pharmacology Branch, DTP, NCI, 2024).
Where “and” joins values, the source holds several entries; their conditions need not be identical. Equal values may be shown once. Values belong to the molecule of their own block, whether it stands above or below them.

Tested on: 192522-019-R-J2-PDC complex tumor spheroid viability
Experiment: Anticancer human tumor 192522-019-R-J2-PDC patient-derived colon adenocarcinoma cell line growth inhibition [POLQ]
Conditions: for viability, T/C: stronger effect = lower value
Procedure: Multicellular complex tumor spheroid response to Polymerase (POL) inhibitors (novobiocin, ART-558, RP6685) in combination with a variety of drugs and investigational agents in selected tumor cell lines
The POL inhibitors (novobiocin, ART-558, and RP6685) were evaluated both individually and in combination with standard of care and investigational anticancer small molecules within a complex spheroid model of solid tumors. . Complex spheroids include a stromal component modeled by human endothelial cells (HUVEC) and fibroblasts modeled by human mesenchymal stem cells (MSCs). The concentration ranges selected for each drug and investigational agent were based upon clinically achievable concentrations if the clinical Cmax of the agent was known.
Compounds. The drugs and investigational agents: novobiocin (NSC847541), ART-558 (NSC835418), RP-6685 (NSC848927), peposertib (NSC802822), ceralasertib (NSC780249), elimusertib (NSC800525), camonsertib (NSC841442), AZD-1390 (NSC803789), olaparib (NSC753686), talazoparib (NSC767125), rucaparib (NSC756644), sotorasib (NSC818433), MRTX-1133 (NSC836407), SN-38 (NSC673596), topotecan (NSC609699), epotoside (NSC141540), doxorubicin (NSC123127), gemcitabine (NSC613327), 5-fluorouracil (NSC19893), paclitaxel (NSC125973), vemurafenib (NSC761431), MSA-2 (NSC828583), SN-011 (NSC837082), adavosertib (NSC754352), prexasertib (NSC758257), carboplatin (NSC241240) and oxaliplatin (NSC266046), were obtained from the National Cancer Institute (NCI) Developmental Therapeutics Program Chemical Repository (21). The FDA-approved anticancer drug set is available from the Developmental Therapeutics Program at https://dtp.cancer.gov/organization/dscb/obtaining/. […] The stock solutions were prepared in dimethyl sulfoxide (DMSO, Sigma-Aldrich, St. Louis, MO, cat. D2650), except for the platinum compounds which were prepared in saline (Quality Biological, Gaithersburg, MD, cat. 114-055-101), at 800-fold the tested concentration and stored at -70 degrees C prior to their use. All drugs and investigational agents were tested over a range starting from a high concentration at or near the clinical Cmax and decreasing in half-log increments. If the clinical Cmax for an agent had not been determined, the highest concentration tested was 10 microM, except for SN-38, which was tested at a high concentration of 1 microM.
Cell Culture. All cells were maintained in an incubator at 37 degrees C and 5% CO2 with 95% humidity. The PDC lines were cultured according to standard operating procedures established by the NCI PDMR (https://pdmr.cancer.gov). Table 3 of the manuscript, lists the cell lines along with the number of the three cell types plated to form the mct-spheroids and media for tumor cell growth. After thawing, all PDC lines, except 997537-175-T-J1-PDC and 415267-285-R-J2-PDC, were cultured in Matrigel-coated flasks prepared with a working solution of 1X Ham's F-12 nutrient mix, without supplementation (Thermo Fisher Scientific, cat. 11765054), 100 U/mL penicillin-streptomycin (Thermo Fisher Scientific, cat. 15140122), and 2.5% Matrigel (Corning Inc., Corning, NY, cat. 354248) for the first three passages. The two PDC lines 997537-175-T-J1-PDC and 415267-285-R-J2-PDC were cultured on uncoated flasks. The 857933-349-R-J2-PDC line was cultured in 6C/Colon 1B media containing advanced DMEM/F-12 (Thermo Fisher Scientific, cat. 12634028), 10 mM HEPES (Thermo Fisher Scientific, cat. 15630080), 1X GlutaMAX supplement (Thermo Fisher Scientific, cat. 35050061), 0.1 mg/mL primocin (InvivoGen, San Diego, CA, cat. ant-pm-2), 10% defined fetal bovine serum, heat inactivated (HyClone Laboratories Inc., Logan, UT, cat. SH30070.03HI), 50% L-WRN conditioned media (ATCC, cat. CRL-3276), 1.25 mM N-Acetyl-L-cysteine (Sigma-Aldrich, cat. A9165), 10 mM nicotinamide (Sigma-Aldrich, cat. N0636), 1X B-27 supplement (Thermo Fisher Scientific, cat. 17504044), 1X N-2 supplement (Thermo Fisher Scientific, cat. […]
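Also: spheroids exposed to drugs for seven days before reading.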
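For viability, T/C in this document: 100% = DMSO vehicle control viability in luminescence.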

Compound: CC1COCCN1c1cc(C2(O)CC3CCC(C2)O3)c2cnn(-c3ccn[nH]3)c2n1 (stereo not given)
- viability, T/C (compound 0.0316 µM): 108% and 105% and 100%
- viability, T/C (compound 0.1 µM): 70.7% and 76.9% and 78.7%
- viability, T/C (compound 0.316 µM): 42% and 35.6% and 46%
- viability, T/C (compound 1 µM): 33.8% and 33.4% and 34.9%
- viability, T/C (compound 3.16 µM): 45.5% and 42.6% and 44.3%
- viability, T/C (compound 10 µM): 49.2% and 50.7% and 51.2%
- IC50 (curve of compound): 0.234 µM and 0.235 µM and 0.272 µM

Compound: CC(C)n1c(=O)n(C)c2cnc3cc(F)c(-c4ccc(OCCCN5CCCCC5)nc4)cc3c21
- viability, T/C (compound 0.0316 µM): 102% and 106% and 98.7%
- viability, T/C (compound 0.1 µM): 87.7% and 95.6% and 105%
- viability, T/C (compound 0.316 µM): 89.9% and 108% and 92.3%
- viability, T/C (compound 1 µM): 114% and 122% and 112%
- viability, T/C (compound 3.16 µM): 118% (2×) and 130%
- viability, T/C (compound 10 µM): 92.8% and 101% and 90.6%
- IC50 (curve of compound): > 10 µM

- IC50 (compound alone, run of 11/06/2023): > 10 µM
Compound: Nc1ccc(C#CCN(C(=O)Cc2ncc(C(F)(F)F)cc2C(F)(F)F)c2ccc(F)cc2)nn1
- viability, T/C (compound 0.0316 µM): 104% [middle of 13 runs]
- viability, T/C (compound 0.1 µM): 106% [middle of 13 runs]
- viability, T/C (compound 0.316 µM): 106% [middle of 13 runs]
- viability, T/C (compound 1 µM): 105% [middle of 13 runs]
- viability, T/C (compound 3.16 µM): 105% [middle of 13 runs]
- viability, T/C (compound 10 µM): 107% [middle of 13 runs]

Compound: COc1cccc2c1C(=O)c1c(O)c3c(c(O)c1C2=O)CC(O)(C(=O)CO)CC3OC1CC(N)C(O)C(C)O1 (stereo not given)
- viability, T/C (compound 0.0316 µM): 103% and 101% and 100%
- viability, T/C (compound 0.1 µM): 82.1% and 80.8% and 80.6%
- viability, T/C (compound 0.316 µM): 72% and 89.1% and 66.9%
- viability, T/C (compound 1 µM): 89.1% and 74.3% and 83.1%
- viability, T/C (compound 3.16 µM): 69.1% and 72.3% and 65.9%
- viability, T/C (compound 10 µM): 59.9% and 62.4% and 48.1%
- IC50 (curve of compound): > 10 µM

Compound: CCc1cc2c(N3CCc4c(cc(Cn5ccnc5)cc4-c4cn(C)nc4C(F)(F)F)C3=O)ccnc2c(OC)n1 + Nc1ccc(C#CCN(C(=O)Cc2ncc(C(F)(F)F)cc2C(F)(F)F)c2ccc(F)cc2)nn1
- IC50 (curve of first compound, second compound 0.0316 µM): > 10 µM
- IC50 (curve of first compound, second compound 0.1 µM): > 10 µM
- IC50 (curve of first compound, second compound 0.316 µM): > 10 µM
- IC50 (curve of first compound, second compound 1 µM): > 10 µM
- IC50 (curve of first compound, second compound 3.16 µM): > 10 µM
- IC50 (curve of first compound, second compound 10 µM): > 10 µM
- viability, T/C (second compound 0.0316 µM, first compound 0.0316 µM): 109%
- viability, T/C (second compound 0.0316 µM, first compound 0.1 µM): 94.7%
- viability, T/C (second compound 0.0316 µM, first compound 0.316 µM): 91.9%
- viability, T/C (second compound 0.0316 µM, first compound 1 µM): 71.8%
- viability, T/C (second compound 0.0316 µM, first compound 3.16 µM): 75.5%
- viability, T/C (second compound 0.0316 µM, first compound 10 µM): 72.2%
- viability, T/C (second compound 0.1 µM, first compound 0.0316 µM): 96.1%
- viability, T/C (second compound 0.1 µM, first compound 0.1 µM): 94.9%
- viability, T/C (second compound 0.1 µM, first compound 0.316 µM): 94%
- viability, T/C (second compound 0.1 µM, first compound 1 µM): 80.9%
- viability, T/C (second compound 0.1 µM, first compound 3.16 µM): 74.6%
- viability, T/C (second compound 0.1 µM, first compound 10 µM): 70.6%
- viability, T/C (second compound 0.316 µM, first compound 0.0316 µM): 103%
- viability, T/C (second compound 0.316 µM, first compound 0.1 µM): 99%
- viability, T/C (second compound 0.316 µM, first compound 0.316 µM): 88%
- viability, T/C (second compound 0.316 µM, first compound 1 µM): 80.6%
- viability, T/C (second compound 0.316 µM, first compound 3.16 µM): 76.2%
- viability, T/C (second compound 0.316 µM, first compound 10 µM): 77.1%
- viability, T/C (second compound 1 µM, first compound 0.0316 µM): 99.7%
- viability, T/C (second compound 1 µM, first compound 0.1 µM): 99.4%
- viability, T/C (second compound 1 µM, first compound 0.316 µM): 94.4%
- viability, T/C (second compound 1 µM, first compound 1 µM): 88.3%
- viability, T/C (second compound 1 µM, first compound 3.16 µM): 87.6%
- viability, T/C (second compound 1 µM, first compound 10 µM): 74.5%
- viability, T/C (second compound 3.16 µM, first compound 0.0316 µM): 108%
- viability, T/C (second compound 3.16 µM, first compound 0.1 µM): 91.6%
- viability, T/C (second compound 3.16 µM, first compound 0.316 µM): 97.5%
- viability, T/C (second compound 3.16 µM, first compound 1 µM): 81%
- viability, T/C (second compound 3.16 µM, first compound 3.16 µM): 90.6%
- viability, T/C (second compound 3.16 µM, first compound 10 µM): 75.8%
- viability, T/C (second compound 10 µM, first compound 0.0316 µM): 106%
- viability, T/C (second compound 10 µM, first compound 0.1 µM): 97.9%
- viability, T/C (second compound 10 µM, first compound 0.316 µM): 97.8%
- viability, T/C (second compound 10 µM, first compound 1 µM): 86%
- viability, T/C (second compound 10 µM, first compound 3.16 µM): 92.7%
- viability, T/C (second compound 10 µM, first compound 10 µM): 79.8%
